Test system: MCF-10A cells
Experiment: 1H NMR metabolomics of polar (aqueous) cell extracts
Assay type: cell-based, human
Settings: for number of metabolites altered: 48 h
Method: MDA-MB-231 and MCF-10A cells were seeded in 10-cm-diameter Petri dishes at a density of 6 × 10^5 cells/mL (10 mL per dish) and cultured for 24 h at 37 °C. […] Vehicle solvent control cells received DMSO (0.10% v/v). Samples were collected immediately after 48 h incubation or, to assess cellular recovery, medium was replaced with fresh growth medium (without TAs), and cells were incubated for additional 24 h before collection (48 + 24 h samples). Four independent assays were performed.
After incubation, culture medium was collected and centrifuged (1000× g, 5 min) and the supernatant stored at −80 °C until analysis. Culture medium without cells was placed under the same conditions and collected. Cell extraction was performed as described by Carrola et al.. Briefly, cells were washed four times with PBS and extracted with a mixture of methanol:chloroform:water (1:1:0.7). The resulting polar and organic phases were collected and then dried under vacuum or under a stream of nitrogen gas, respectively. All samples were stored at −80 °C and, at the time of analysis, dried polar extracts were reconstituted in 600 µL of deuterated phosphate buffer (100 mM, pH 7.4) containing 0.1 mM TSP-d4, while organic extracts were reconstituted in deuterated chloroform containing 0.03% TMS. Regarding medium samples, 540 μL were mixed with 60 μL of D2O containing 0.25% TSP-d4. Prior to analysis, 550 μL of each sample were transferred to 5 mm NMR tubes.
^1H NMR spectra of all samples were acquired on a Bruker Avance III HD 500 NMR spectrometer (University of Aveiro, Portuguese NMR Network) operating at 500.13 MHz for ^1H observation equipped with a 5 mm TXI probe. Standard 1D spectra (Bruker pulse programs ‘noesypr1d’, with water suppression, for medium samples and aqueous extracts, and ‘zg’ for organic extracts) were recorded with a 7002.8 Hz spectral width, 32 k data points, a 2 s relaxation delay and 512 scans. Spectral processing comprised exponential multiplication with 0.3 Hz line broadening, zero filling to 64 k data points, manual phasing, baseline correction, and chemical shift calibration to the TSP or TMS signal at 0 ppm. 2D ^1H-^1H total correlation (TOCSY) spectra, ^1H-^13C heteronuclear single quantum correlation (HSQC) spectra and J-resolved spectra were also registered for selected samples to assist spectral assignment. Metabolites were identified with the support of 2D spectra and the spectral reference databases BBIOREFCODE-2-0-0 (Bruker Biospin, Rheinstetten, Germany) and HMDB [28]. Selected signals were then integrated using the AmixViewer software […] (version 3.9.14, Bruker BioSpin, Rheinstetten, Germany) and normalized by the total spectral area. The magnitude of each metabolite change was assessed through the percentage of variation (and its respective error) in exposed samples relatively to controls, and through the effect size (ES) adjusted for small sample numbers (and respective standard error). Metabolite variations with absolute ES greater than 0.8 were expressed in a heatmap, colored as a function of the percentage of variation, employing the R statistical software.

Compound: C[C@H]1[C@H](C)CC[C@]2(C(=O)O)CC[C@]3(C)C(=CC[C@@H]4[C@@]5(C)CC[C@H](O)C(C)(C)[C@@H]5CC[C@]43C)[C@H]12 [UA, ursolic acid]
- 1-MethyInicotinamide %var (UA 10µM, 48h): 38.46%
- 3-Hydroxyisobutyrate %var (UA 10µM, 48h): -23.71%
- ATP %var (UA 10µM, 48h): 41.52%
- Acetate %var (UA 10µM, 48h): 0%
- Ala %var (UA 10µM, 48h): 44.32%
- Asp %var (UA 10µM, 48h): -38.30%
- Choline %var (UA 10µM, 48h): 31.99%
- Citrate %var (UA 10µM, 48h): -36.91%
- Cr %var (UA 10µM, 48h): -16.76%
- Dimethylamine %var (UA 10µM, 48h): -53.26%
- Formate %var (UA 10µM, 48h): 0%
- Fumarate %var (UA 10µM, 48h): 0%
- GPC %var (UA 10µM, 48h): 108.51%
- GSH %var (UA 10µM, 48h): -30.60%
- Gln %var (UA 10µM, 48h): 0%
- Glu %var (UA 10µM, 48h): -21.17%
- Glucose %var (UA 10µM, 48h): -71.26%
- Glucose-1-phosphate %var (UA 10µM, 48h): -75.94%
- Gly %var (UA 10µM, 48h): 40.31%
- His %var (UA 10µM, 48h): 0%
- Ile %var (UA 10µM, 48h): 211.80%
- Lactate %var (UA 10µM, 48h): 0%
- Leu %var (UA 10µM, 48h): 389.84%
- NADH %var (UA 10µM, 48h): 34.09%
- PC %var (UA 10µM, 48h): -26.30%
- PCr %var (UA 10µM, 48h): 34.32%
- Phe %var (UA 10µM, 48h): 22.52%
- Pro %var (UA 10µM, 48h): 87.39%
- Tyr %var (UA 10µM, 48h): 0%
- UDP-GalNAc %var (UA 10µM, 48h): 62.26%
- UDP-GlcNAc %var (UA 10µM, 48h): 60.69%
- UDP-Glucose %var (UA 10µM, 48h): -19.78%
- Val %var (UA 10µM, 48h): 151.36%
- myo -Lno %var (UA 10µM, 48h): -13.14%
- 1-MethyInicotinamide %var (UA 10µM, 48h+24h): 22.91%
- 3-Hydroxyisobutyrate %var (UA 10µM, 48h+24h): -22.77%
- ATP %var (UA 10µM, 48h+24h): 0%
- Acetate %var (UA 10µM, 48h+24h): 0%
- Ala %var (UA 10µM, 48h+24h): 0%
- Asp %var (UA 10µM, 48h+24h): -26.58%
- Choline %var (UA 10µM, 48h+24h): 0%
- Citrate %var (UA 10µM, 48h+24h): -18.09%
- Cr %var (UA 10µM, 48h+24h): 0%
- Dimethylamine %var (UA 10µM, 48h+24h): -15.34%
- Formate %var (UA 10µM, 48h+24h): 0%
- Fumarate %var (UA 10µM, 48h+24h): -22.45%
- GPC %var (UA 10µM, 48h+24h): -32.45%
- GSH %var (UA 10µM, 48h+24h): -27.29%
- Gln %var (UA 10µM, 48h+24h): 16.14%
- Glu %var (UA 10µM, 48h+24h): 0%
- Glucose %var (UA 10µM, 48h+24h): -31.96%
- Glucose-1-phosphate %var (UA 10µM, 48h+24h): 0%
- Gly %var (UA 10µM, 48h+24h): 24.70%
- His %var (UA 10µM, 48h+24h): 0%
- Ile %var (UA 10µM, 48h+24h): 58.71%
- Lactate %var (UA 10µM, 48h+24h): 0%
- Leu %var (UA 10µM, 48h+24h): 82.57%
- NADH %var (UA 10µM, 48h+24h): 20.35%
- PC %var (UA 10µM, 48h+24h): -38.35%
- PCr %var (UA 10µM, 48h+24h): 24.82%
- Phe %var (UA 10µM, 48h+24h): 16.59%
- Pro %var (UA 10µM, 48h+24h): 49.66%
- Tyr %var (UA 10µM, 48h+24h): 13.28%
- UDP-GalNAc %var (UA 10µM, 48h+24h): 0%
- UDP-GlcNAc %var (UA 10µM, 48h+24h): 0%
- UDP-Glucose %var (UA 10µM, 48h+24h): 0%
- Val %var (UA 10µM, 48h+24h): 47.98%
- myo -Lno %var (UA 10µM, 48h+24h): 0%
- 1-MethyInicotinamide %var (UA 20µM, 48h): 83.24%
- 3-Hydroxyisobutyrate %var (UA 20µM, 48h): -30.93%
- ATP %var (UA 20µM, 48h): 53.13%
- Acetate %var (UA 20µM, 48h): 0%
- Ala %var (UA 20µM, 48h): 0%
- Asp %var (UA 20µM, 48h): -46.10%
- Choline %var (UA 20µM, 48h): 30.58%
- Citrate %var (UA 20µM, 48h): -38.52%
- Cr %var (UA 20µM, 48h): 0%
- Dimethylamine %var (UA 20µM, 48h): -41.93%
- Formate %var (UA 20µM, 48h): 0%
- Fumarate %var (UA 20µM, 48h): 0%
- GPC %var (UA 20µM, 48h): 160.13%
- GSH %var (UA 20µM, 48h): -21.64%
- Gln %var (UA 20µM, 48h): 0%
- Glu %var (UA 20µM, 48h): -23.01%
- Glucose %var (UA 20µM, 48h): -85.89%
- Glucose-1-phosphate %var (UA 20µM, 48h): -78.61%
- Gly %var (UA 20µM, 48h): 38.29%
- His %var (UA 20µM, 48h): 0%
- Ile %var (UA 20µM, 48h): 156.93%
- Lactate %var (UA 20µM, 48h): 0%
- Leu %var (UA 20µM, 48h): 297.70%
- NADH %var (UA 20µM, 48h): 46.21%
- PCr %var (UA 20µM, 48h): 0%
- Phe %var (UA 20µM, 48h): 0%
- Pro %var (UA 20µM, 48h): 69.18%
- Tyr %var (UA 20µM, 48h): 0%
- UDP-GalNAc %var (UA 20µM, 48h): 68.87%
- UDP-GlcNAc %var (UA 20µM, 48h): 61.45%
- UDP-Glucose %var (UA 20µM, 48h): -32.23%
- Val %var (UA 20µM, 48h): 101.22%
- myo -Lno %var (UA 20µM, 48h): 0%
- 1-MethyInicotinamide %var (UA 20µM, 48h+24h): 50.44%
- 3-Hydroxyisobutyrate %var (UA 20µM, 48h+24h): -30.69%
- ATP %var (UA 20µM, 48h+24h): 0%
- Acetate %var (UA 20µM, 48h+24h): 10.61%
- Ala %var (UA 20µM, 48h+24h): 0%
- Asp %var (UA 20µM, 48h+24h): -37.26%
- Choline %var (UA 20µM, 48h+24h): 0%
- Citrate %var (UA 20µM, 48h+24h): -32.19%
- Cr %var (UA 20µM, 48h+24h): 28.29%
- Dimethylamine %var (UA 20µM, 48h+24h): -23.93%
- Formate %var (UA 20µM, 48h+24h): 0%
- Fumarate %var (UA 20µM, 48h+24h): -34.69%
- GPC %var (UA 20µM, 48h+24h): 0%
- GSH %var (UA 20µM, 48h+24h): -26.66%
- Gln %var (UA 20µM, 48h+24h): 25.50%
- Glu %var (UA 20µM, 48h+24h): -11.32%
- Glucose %var (UA 20µM, 48h+24h): -67.35%
- Glucose-1-phosphate %var (UA 20µM, 48h+24h): -40.85%
- Gly %var (UA 20µM, 48h+24h): 31.50%
- His %var (UA 20µM, 48h+24h): 0%
- Ile %var (UA 20µM, 48h+24h): 94.71%
- Lactate %var (UA 20µM, 48h+24h): 0%
- Leu %var (UA 20µM, 48h+24h): 130.47%
- NADH %var (UA 20µM, 48h+24h): 55.81%
- PC %var (UA 20µM, 48h+24h): -38.16%
- PCr %var (UA 20µM, 48h+24h): 0%
- Phe %var (UA 20µM, 48h+24h): 27.29%
- Pro %var (UA 20µM, 48h+24h): 78.81%
- Tyr %var (UA 20µM, 48h+24h): 21.23%
- UDP-GalNAc %var (UA 20µM, 48h+24h): 0%
- UDP-GlcNAc %var (UA 20µM, 48h+24h): 0%
- UDP-Glucose %var (UA 20µM, 48h+24h): -20.07%
- Val %var (UA 20µM, 48h+24h): 70.45%
- myo -Lno %var (UA 20µM, 48h+24h): 0%
- number of metabolites altered (UA high concentration): 22
- number of metabolites altered (UA low concentration): 27

Reference: article PMC7464159, “Triple Negative Breast Cancer and Breast Epithelial Cells Differentially Reprogram Glucose and Lipid Metabolism upon Treatment with Triterpenic Acids” (Biomolecules, 2020)
